Source: PubChem BioAssay (NCI)
Where “and” joins values, the source holds several entries; their conditions need not be identical. Equal values may be shown once.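 All cell lines were grown in 96-well plates and treated with compound for 48 hours. Here, GI50 denotes the concentration required for 50% inhibition of growth. TGI is the concentration that stops growth completely.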

test system: A549 NSCLC; experiment: NCI tumour cell line growth inhibition, 48 h

`Clc1ccc2c(c1)[nH]c1c2nc2ccccn21` was tested, and the TGI was > 100 µM and 74.2 µM.
For `C[N+](C)(C)CC1CCCc2ccccc2C1=O` (stereo not drawn), the TGI was 5.72 µM and 36.6 µM.

Point of comparison: `CCN1CCN(C(=O)[C@@]2(C)CC[C@]3(C)CC[C@]4(C)C(=CC(=O)[C@@H]5[C@@]6(C)CC[C@H](OC7C[C@@H](O)[C@@H](O)C(C)O7)C(C)(C)[C@@H]6CC[C@]54C)[C@@H]3C2)CC1` (stereo partly drawn), TGI 8.94 µM. Against it:
- CCOC(=O)c1cnc2c(ccc3[nH]n(C)nc32)c1=O — higher, > 100 µM
- NC(=S)N/N=C(\CC1OC(=O)c2ccccc21)c1ccc(Cl)cc1 (stereo not drawn) — higher, > 100 µM
- COc1ccc2occ(CCC(=O)O)c2c1 — higher, > 100 µM
- COC(=O)C(C(=O)c1ccccc1)C(C(=O)C(=O)Nc1ccc(OC)cc1OC)C(=O)C(=O)c1ccc(C)cc1 (stereo not drawn) — higher, > 100 µM
- CC1(C)COC(C2(C)C(=O)C=C(c3ccccc3)c3ccccc32)=N1 (stereo not drawn) — higher, > 100 µM
- O=C(Nc1ccn(CCO)c(=O)n1)c1ccccc1 — higher, > 100 µM
- O=C1CCC2(c3ccc(Cl)cc3)Nc3ncccc3N12 (stereo not drawn) — higher, > 100 µM
- CC12C/C(=C\c3ccccc3)C(=O)C3C1CCCC32 — higher, > 100 µM
- OC(CC1SCCCS1)c1ccccc1 (stereo not drawn) — higher, > 100 µM
- CCCCOC(=O)CNC(=O)OC/C=C/C#CC#C/C=C/COC(=O)NCC(=O)OCCCC — higher, > 100 µM
- O=C1c2ccccc2C(=O)N1CCn1ccc(NC(c2ccccc2)(c2ccccc2)c2ccccc2)nc1=O — higher, > 100 µM
- CC(C)(C)NNC(=O)CCn1[nH]c(=O)c(Cl)c(Cl)c1=O — higher, > 100 µM
- CCC12CCCN(Cc3ccccc3)C1c1c(n(C)c3ccccc13)CC2 (stereo not drawn) — higher, > 25.3 µM
- CCN(CC)CCCN1CCc2c([nH]c3ccccc23)C1c1cccnc1 (stereo not drawn) — higher, > 100 µM
- Nc1nc(Cl)cc(NCCCCCCCCNc2cc(Cl)nc(N)n2)n1 — higher, > 100 µM
- CC(C)N(C(=O)C12C3C4C1C1C4(C#N)C3C12C#N)C(C)C (stereo not drawn) — higher, > 100 µM
- O=C1CCC(Cl)=CC2CCCN12 (stereo not drawn) — higher, > 100 µM
- c1ccc2cc(-c3cc4ccccc4s3)ccc2c1 — higher, > 100 µM
- Cc1ccc(S(=O)(=O)N(C=O)N=C2CCN(Cc3ccccc3)CC2)cc1 — higher, > 100 µM
- CC(C)C(CCl)NC(=O)c1cccc(C(=O)N[C@H](CCl)C(C)C)n1 (stereo in doubt) — higher, > 100 µM
- CCC(=O)CC(=O)CCC(=O)Nc1cc(C)ccc1C — higher, > 100 µM
- COC(=O)COc1ccccc1/C=C1\N=C(c2ccccc2)N(c2cc(C(F)(F)F)ccc2Cl)C1=O — higher, > 100 µM
- C=C1C(=O)OC2CC(C)C(C(CC(C)=O)OC(C)=O)=CCC12 (stereo not drawn) — higher, > 76.2 µM
- CC(=O)OC1COC(Oc2c(C)c3c4c(c2O)[C@@H](C)CC[C@@H]4[C@@H](C)C[C@H]3C=C(C)C)C(O)C1OC(C)=O (stereo partly drawn) — 3.7-fold higher, 32.8 µM
- S=C(Nc1ccc(Cl)cc1)Nc1ccc(-c2nc3ccccc3s2)cc1 — 3.6-fold higher, 32.2 µM
- CC(=O)Nc1ccc(S(=O)(=O)N2C(=O)CCC2C(=O)Nc2ccc(Br)cc2)cc1 (stereo not drawn) — within 1.5-fold, 13.4 µM
- CC(=O)CCn1ncc(Cl)c(Cl)c1=O — 5-fold higher, 44.6 µM
- CO/N=C(/C)c1cccc(Nc2cc(-n3nnc4ccccc43)nc3ccccc23)c1 — higher, > 100 µM
- COc1cc(C(=O)N2CCN(C=O)C2=S)cc(OC)c1OC — 9.9-fold higher, 88.8 µM
- Cn1c(I)c(C#CCO[Si](C)(C)C(C)(C)C)c(=O)[nH]c1=O — higher, > 100 µM
- CN1CC(=O)N2Cc3ccccc3-n3cccc3C2C1 (stereo not drawn) — higher, > 100 µM
- CCCCC#CC1=C(Br)C(=O)OC1 — 4.9-fold higher, 43.4 µM
- O=C(Nc1ccc(Br)cc1F)c1cc(F)ccc1O — higher, > 100 µM
- CC/C=C\C[C@H](O)C/C=C1/C(=O)C(Cl)=C[C@@H]1C/C=C\CCCC(=O)OC — within 1.5-fold, 7.52 µM
- c1ccc(-c2nnc(-c3ccccn3)s2)nc1 — higher, > 100 µM
- CN1CCN(C2CCN(C(=O)Nc3cc(Oc4ccc(NC(=O)C5(C(=O)Nc6ccc(F)cc6)CC5)c(F)c4)ccn3)CC2)CC1 — higher, > 10 µM
- Nc1nn2cc(F)cnc2c1C(=O)Nc1cncc(F)c1N1CCC(C(=O)N2CCN(C3COC3)CC2)CC1 — higher, > 100 µM

Point of comparison: `COc1cc(C(=O)N2CCN(C=O)C2=S)cc(OC)c1OC`, GI50 33.2 µM. Against it:
- CCCCOC(=O)CNC(=O)OC/C=C/C#CC#C/C=C/COC(=O)NCC(=O)OCCCC — higher, > 100 µM
- COC(=O)COc1ccccc1/C=C1\N=C(c2ccccc2)N(c2cc(C(F)(F)F)ccc2Cl)C1=O — 2.9-fold higher, 97.4 µM
- CC(=O)OC1COC(Oc2c(C)c3c4c(c2O)[C@@H](C)CC[C@@H]4[C@@H](C)C[C@H]3C=C(C)C)C(O)C1OC(C)=O (stereo partly drawn) — 2.1-fold lower, 16 µM
- S=C(Nc1ccc(Cl)cc1)Nc1ccc(-c2nc3ccccc3s2)cc1 — 2.2-fold lower, 14.9 µM
- CC(=O)Nc1ccc(S(=O)(=O)N2C(=O)CCC2C(=O)Nc2ccc(Br)cc2)cc1 (stereo not drawn) — 21-fold lower, 1.6 µM
- CO/N=C(/C)c1cccc(Nc2cc(-n3nnc4ccccc43)nc3ccccc23)c1 — within 1.5-fold, 38.7 µM
- C[N+](C)(C)CC1CCCc2ccccc2C1=O (stereo not drawn) — 1.8-fold lower, 18.6 µM
- Cn1c(I)c(C#CCO[Si](C)(C)C(C)(C)C)c(=O)[nH]c1=O — higher, > 100 µM
- CCCCC#CC1=C(Br)C(=O)OC1 — 1.9-fold lower, 17.2 µM
- O=C(Nc1ccc(Br)cc1F)c1cc(F)ccc1O — 20-fold lower, 1.69 µM
- CC/C=C\C[C@H](O)C/C=C1/C(=O)C(Cl)=C[C@@H]1C/C=C\CCCC(=O)OC — 13-fold lower, 2.64 µM
- c1ccc(-c2nnc(-c3ccccn3)s2)nc1 — higher, > 100 µM
- CN1CCN(C2CCN(C(=O)Nc3cc(Oc4ccc(NC(=O)C5(C(=O)Nc6ccc(F)cc6)CC5)c(F)c4)ccn3)CC2)CC1 — 24-fold lower, 1.38 µM
- CCN1CCN(C(=O)[C@@]2(C)CC[C@]3(C)CC[C@]4(C)C(=CC(=O)[C@@H]5[C@@]6(C)CC[C@H](OC7C[C@@H](O)[C@@H](O)C(C)O7)C(C)(C)[C@@H]6CC[C@]54C)[C@@H]3C2)CC1 (stereo partly drawn) — 19-fold lower, 1.76 µM
- Nc1nn2cc(F)cnc2c1C(=O)Nc1cncc(F)c1N1CCC(C(=O)N2CCN(C3COC3)CC2)CC1 — 120-fold lower, 0.266 µM

test system: CCRF-CEM leukemia; experiment: NCI tumour cell line growth inhibition, 48 h

For `Clc1ccc2c(c1)[nH]c1c2nc2ccccn21`, the GI50 was 22.8 µM and 7.18 µM.

For `Clc1ccc2c(c1)[nH]c1c2nc2ccccn21`, the TGI was 71.3 µM and 48.9 µM.
`C[N+](C)(C)CC1CCCc2ccccc2C1=O` (stereo not drawn) was tested, and the TGI was 5.77 µM and 1.11 µM.

Point of comparison: `CC(=O)Nc1ccc(S(=O)(=O)N2C(=O)CCC2C(=O)Nc2ccc(Br)cc2)cc1` (stereo not drawn), TGI 11 µM. Against it:
- CCOC(=O)c1cnc2c(ccc3[nH]n(C)nc32)c1=O — higher, > 100 µM
- COc1ccc2occ(CCC(=O)O)c2c1 — higher, > 100 µM
- COC(=O)C(C(=O)c1ccccc1)C(C(=O)C(=O)Nc1ccc(OC)cc1OC)C(=O)C(=O)c1ccc(C)cc1 (stereo not drawn) — higher, > 100 µM
- CC1(C)COC(C2(C)C(=O)C=C(c3ccccc3)c3ccccc32)=N1 (stereo not drawn) — higher, > 100 µM
- O=C(Nc1ccn(CCO)c(=O)n1)c1ccccc1 — higher, > 100 µM
- O=C1CCC2(c3ccc(Cl)cc3)Nc3ncccc3N12 (stereo not drawn) — higher, > 100 µM
- CC12C/C(=C\c3ccccc3)C(=O)C3C1CCCC32 — higher, > 100 µM
- OC(CC1SCCCS1)c1ccccc1 (stereo not drawn) — higher, > 100 µM
- CCCCOC(=O)CNC(=O)OC/C=C/C#CC#C/C=C/COC(=O)NCC(=O)OCCCC — higher, > 100 µM
- O=C1c2ccccc2C(=O)N1CCn1ccc(NC(c2ccccc2)(c2ccccc2)c2ccccc2)nc1=O — 5.4-fold higher, 59.3 µM
- CC(C)(C)NNC(=O)CCn1[nH]c(=O)c(Cl)c(Cl)c1=O — higher, > 100 µM
- CCC12CCCN(Cc3ccccc3)C1c1c(n(C)c3ccccc13)CC2 (stereo not drawn) — higher, > 253 µM
- CCN(CC)CCCN1CCc2c([nH]c3ccccc23)C1c1cccnc1 (stereo not drawn) — higher, > 100 µM
- Nc1nc(Cl)cc(NCCCCCCCCNc2cc(Cl)nc(N)n2)n1 — higher, > 100 µM
- CC(C)N(C(=O)C12C3C4C1C1C4(C#N)C3C12C#N)C(C)C (stereo not drawn) — higher, > 100 µM
- c1ccc2cc(-c3cc4ccccc4s3)ccc2c1 — higher, > 100 µM
- Cc1ccc(S(=O)(=O)N(C=O)N=C2CCN(Cc3ccccc3)CC2)cc1 — higher, > 100 µM
- CC(C)C(CCl)NC(=O)c1cccc(C(=O)N[C@H](CCl)C(C)C)n1 (stereo in doubt) — higher, > 100 µM
- CCC(=O)CC(=O)CCC(=O)Nc1cc(C)ccc1C — higher, > 100 µM
- COC(=O)COc1ccccc1/C=C1\N=C(c2ccccc2)N(c2cc(C(F)(F)F)ccc2Cl)C1=O — 6.8-fold higher, 74.4 µM
- C=C1C(=O)OC2CC(C)C(C(CC(C)=O)OC(C)=O)=CCC12 (stereo not drawn) — higher, > 35 µM
- CC(=O)OC1COC(Oc2c(C)c3c4c(c2O)[C@@H](C)CC[C@@H]4[C@@H](C)C[C@H]3C=C(C)C)C(O)C1OC(C)=O (stereo partly drawn) — 3-fold higher, 33.4 µM
- S=C(Nc1ccc(Cl)cc1)Nc1ccc(-c2nc3ccccc3s2)cc1 — 5-fold higher, 54.8 µM
- CC(=O)CCn1ncc(Cl)c(Cl)c1=O — higher, > 100 µM
- CO/N=C(/C)c1cccc(Nc2cc(-n3nnc4ccccc43)nc3ccccc23)c1 — higher, > 100 µM
- COc1cc(C(=O)N2CCN(C=O)C2=S)cc(OC)c1OC — 4.5-fold higher, 49 µM
- Cn1c(I)c(C#CCO[Si](C)(C)C(C)(C)C)c(=O)[nH]c1=O — 2.6-fold lower, 4.17 µM
- O=C(Nc1ccc(Br)cc1F)c1cc(F)ccc1O — within 1.5-fold, 13.9 µM
- CC/C=C\C[C@H](O)C/C=C1/C(=O)C(Cl)=C[C@@H]1C/C=C\CCCC(=O)OC — 6.4-fold lower, 1.73 µM
- c1ccc(-c2nnc(-c3ccccn3)s2)nc1 — higher, > 100 µM
- CN1CCN(C2CCN(C(=O)Nc3cc(Oc4ccc(NC(=O)C5(C(=O)Nc6ccc(F)cc6)CC5)c(F)c4)ccn3)CC2)CC1 — not separable, > 5.7 µM
- CCN1CCN(C(=O)[C@@]2(C)CC[C@]3(C)CC[C@]4(C)C(=CC(=O)[C@@H]5[C@@]6(C)CC[C@H](OC7C[C@@H](O)[C@@H](O)C(C)O7)C(C)(C)[C@@H]6CC[C@]54C)[C@@H]3C2)CC1 (stereo partly drawn) — 4.5-fold higher, 50 µM

Point of comparison: `Cn1c(I)c(C#CCO[Si](C)(C)C(C)(C)C)c(=O)[nH]c1=O`, GI50 1.92 µM. Against it:
- CCCCOC(=O)CNC(=O)OC/C=C/C#CC#C/C=C/COC(=O)NCC(=O)OCCCC — higher, > 100 µM
- COC(=O)COc1ccccc1/C=C1\N=C(c2ccccc2)N(c2cc(C(F)(F)F)ccc2Cl)C1=O — 14-fold higher, 27.6 µM
- CC(=O)OC1COC(Oc2c(C)c3c4c(c2O)[C@@H](C)CC[C@@H]4[C@@H](C)C[C@H]3C=C(C)C)C(O)C1OC(C)=O (stereo partly drawn) — 6.2-fold higher, 12 µM
- S=C(Nc1ccc(Cl)cc1)Nc1ccc(-c2nc3ccccc3s2)cc1 — 8.1-fold higher, 15.6 µM
- CC(=O)Nc1ccc(S(=O)(=O)N2C(=O)CCC2C(=O)Nc2ccc(Br)cc2)cc1 (stereo not drawn) — within 1.5-fold, 1.49 µM
- CO/N=C(/C)c1cccc(Nc2cc(-n3nnc4ccccc43)nc3ccccc23)c1 — 11-fold higher, 20.7 µM
- C[N+](C)(C)CC1CCCc2ccccc2C1=O (stereo not drawn) — 4.6-fold lower, 0.42 µM
- COc1cc(C(=O)N2CCN(C=O)C2=S)cc(OC)c1OC — 9.5-fold higher, 18.3 µM
- CCCCC#CC1=C(Br)C(=O)OC1 — 7.4-fold lower, 0.261 µM
- O=C(Nc1ccc(Br)cc1F)c1cc(F)ccc1O — within 1.5-fold, 2.4 µM
- CC/C=C\C[C@H](O)C/C=C1/C(=O)C(Cl)=C[C@@H]1C/C=C\CCCC(=O)OC — 4.7-fold lower, 0.412 µM
- c1ccc(-c2nnc(-c3ccccn3)s2)nc1 — higher, > 100 µM
- CN1CCN(C2CCN(C(=O)Nc3cc(Oc4ccc(NC(=O)C5(C(=O)Nc6ccc(F)cc6)CC5)c(F)c4)ccn3)CC2)CC1 — 1.5-fold lower, 1.26 µM
- CCN1CCN(C(=O)[C@@]2(C)CC[C@]3(C)CC[C@]4(C)C(=CC(=O)[C@@H]5[C@@]6(C)CC[C@H](OC7C[C@@H](O)[C@@H](O)C(C)O7)C(C)(C)[C@@H]6CC[C@]54C)[C@@H]3C2)CC1 (stereo partly drawn) — within 1.5-fold, 1.52 µM
- Nc1nn2cc(F)cnc2c1C(=O)Nc1cncc(F)c1N1CCC(C(=O)N2CCN(C3COC3)CC2)CC1 — 58-fold lower, 0.0332 µM
